Results: patent US20070135412A1, “Compounds for the treatment of ocular dryness caused by photorefractive surgery” (priority 2003, published 2007)

Experiments:
[1] = tested on: fibres innervating the cornea (polymodal nociceptive fibres); assay: Extracellular recording of corneal nerve fibres in cats with a corneal wound, before and after topical drug application; type: in vivo, cat; conditions: anaesthetized cats 7 and 15 days after circular corneal wound; for responses evoked by pulses of CO2 of 30 s duration: 98% CO2 on receptor field around the lesion, before vs after topical application (same concentration ranges); for spontaneous activity of the fibres innervating the zones around the lesion: before vs after topical application (carbamazepine 0.001-0.01%, phenyloin 0.001-0.1%, mexiletine 0.001-0.1%, lidocaine 0.0005-0.01%, tocaidine 0.001-0.01%)
Procedure: Tests were carried out on fifteen adult cats of both sexes, anaesthetized with pentobarbital sodium (Nembutal, 40 mg/kg, i.p.). The cornea of both eyes was anaesthetized topically by instillation of tetracaine 0.1% and oxybuprocaine hydrochloride 0.4%.
A circular wound was made in the centre of the cornea with a 5 mm dia. trepan which penetrated 40-50 μm below the Bowman membrane. The animals were treated with topical and systemic antibiotics, leaving them to recover for 1-2 weeks.
The recording tests were carried out 7 and 15 days after surgery. The animals were anaesthetized with Nembutal (40 mg/kg, i.p.) and were maintained in a state of areflexia during the experiment by intravenous infusion of dilute Nembutal (5 mg/kg) in the saphenous vein. The animals breathed spontaneously through a tracheal cannula. Respiratory CO2, rectal temperature and arterial pressure were monitored continuously and were kept stable. The animals were sacrificed with an overdose of Nembutal at the end of the experiment.
Extracellular recording was made of nerve fibres isolated from the cornea, obtained from the ciliary nerves of the eye, using silver/silver chloride electrodes and conventional electrophysiological equipment, as described previously (cf. Belmonte, C., Gallar, J., Pozo, M. A., Rebollo, I. (1991) Excitation by irritant chemical substances of sensory afferent units in the cat's cornea. J. Physiol. 437: 709-725).
The corneal sensory fibres were identified by their response to mild stimulation with a wet brush. The mechanical threshold was measured with a Cochet-Bonnet aesthesiometer with a No. 12 filament (0.1-1.9 mN) and with calibrated von Frey hairs (0.002-2.0 N). The receptor fields were mapped with a suprathreshold force hair. Sensitivity to chemical stimuli was investigated by applying a pulse of gas containing 98% CO2 at a flow rate of 80 ml/min on the receptor field for 30 s.
The conduction velocity was measured by observing the latency to electric shocks (0.1-0.5 ms, 0.5-3.0 mA) applied on the receptor field with a pair of silver electrodes 3-5 mm apart. The conduction distance was estimated with a silk thread of 0.8 G positioned on the path of the nerve.
The nerve discharges and the stimulation pulses were recorded on an FM magnetic tape recorder for off-line computer analysis with suitable software (CED 1401plus and Spike2 for Windows). The spontaneous activity (average discharge frequency in pulses per second) and the changes in discharge caused by the various stimuli were measured.
The fibres were classified as peripheral and central according to the localization of their receptor field. […] Depending on the localization of the receptor field the fibres were classified as far from the wound or close to or bordering on the wound. The control data were obtained from intact corneas.
The response of the polymodal nociceptive fibres to chemical stimulation was investigated in the fibres whose receptor field touched the damaged area and in those whose receptor field was outside of and far from the lesion. The spontaneous activity and the discharge of the fibres in response to stimulation with CO2 were measured before and after topical application of carbamazepine (0.001-0.01%), phenyloin (5,5-diphenylhydantoin) (0.001-0.1%), mexiletine (0.001-0.1%), lidocaine (0.0005-0.01%) and tocaidine (0.001-0.01%).

[2] = tested on: sensations of ocular dryness that appear after photorefractive surgery of the LASIK type; assay: Clinical study of topical carbamazepine versus placebo on ocular dryness after LASIK surgery; type: in vivo, human; conditions: ophthalmic solution at 0.01%, one drop in the operated eye twice a day for 14 days after LASIK
Procedure: A clinical study was carried out for comparing the attenuating effect produced by the topical administration of carbamazepine and of a placebo on the sensations of ocular dryness that appear after photorefractive surgery of the LASIK type. The study included 124 subjects, men and women in the age range 21-45 years, who underwent routine, elective, unilateral LASIK surgery for correction of myopia. The carbamazepine was administered in ophthalmic solution at 0.01%. After surgery, the subjects received one drop of the study medication in the operated eye, twice a day for 14 consecutive days. Postoperative examinations were carried out on days 1, 3, 7 and 14. The efficacy of the treatment was assessed by measuring the sensation of ocular dryness, pain intensity, and the overall analgesic efficacy, employing independent visual-analogy scales. The symptoms of eye inflammation, burning/stinging sensations, lacrimation etc. were also recorded.

SMILES | responses evoked by pulses of CO2 of 30 s duration [1] | spontaneous activity of the fibres innervating the zones around the lesion [1] | incidence of symptoms of dryness throughout the day [2] | incidence of the symptoms of ocular dryness ([2]; statistically significant)
Cc1cccc(C)c1NC(=O)C(C)N (stereo not drawn) [tocaidine] | dose-dependent decrease | dose-dependent decrease |  | 
NC(=O)N1c2ccccc2C=Cc2ccccc21 [carbamazepine] | dose-dependent decrease | dose-dependent decrease | significantly lower | more reduced incidence
CCN(CC)CC(=O)Nc1c(C)cccc1C [lidocaine] | dose-dependent decrease | dose-dependent decrease |  | 
Cc1cccc(C)c1OCC(C)N (stereo not drawn) [mexiletine] | dose-dependent decrease | dose-dependent decrease |  | 
O=C1NC(=O)C(c2ccccc2)(c2ccccc2)N1 [phenyloin, 5,5-diphenylhydantoin] | dose-dependent decrease | dose-dependent decrease |  | 
